From US20030139431A1 (priority 2001, published 2003)

What was measured:
[1] = biological target: T1, rNPFF1 (Rattus norvegicus, UniProt Q9EP86); assay: Functional assay (agonist potency, intrinsic activity) at cloned rat NPFF1 receptor; type: cell-based; settings: for rNPFF1 IA (intrinsic activity): percent of maximum response elicited by neuropeptide FF, rat NPFF1; for EC50: recombinant rat NPFF1
T1 construct: expressed in transfected cells
Method: (§1) Intrinsic activity of a compound is measured as the percent of maximum response.

[2] = biological target: T2, rNPFF2 (Rattus norvegicus, UniProt Q9EQD2); assay: Binding affinity at cloned recombinant rat NPFF2 receptor
T2 construct: expressed in transfected cells
T2 sequence (Q9EQD2 whole entry): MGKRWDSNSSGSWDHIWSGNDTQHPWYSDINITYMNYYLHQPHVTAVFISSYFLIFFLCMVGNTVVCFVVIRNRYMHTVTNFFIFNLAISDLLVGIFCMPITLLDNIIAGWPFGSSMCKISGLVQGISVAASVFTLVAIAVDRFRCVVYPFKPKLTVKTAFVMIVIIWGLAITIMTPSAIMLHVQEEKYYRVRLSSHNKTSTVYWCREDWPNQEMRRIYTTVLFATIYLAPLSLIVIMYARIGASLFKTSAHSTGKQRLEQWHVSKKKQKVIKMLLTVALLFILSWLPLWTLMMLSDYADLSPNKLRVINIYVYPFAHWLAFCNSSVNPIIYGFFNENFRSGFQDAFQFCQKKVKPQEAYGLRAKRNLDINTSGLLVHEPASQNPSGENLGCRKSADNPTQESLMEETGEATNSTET

[3] = biological target: T1, rNPFF1; assay: Binding affinity at cloned recombinant rat NPFF1 receptor
[4] = biological target: T2, rNPFF2; assay: Functional assay (agonist potency, intrinsic activity) at cloned rat NPFF2 receptor; type: cell-based; settings: for rNPFF2 IA (intrinsic activity): percent of maximum response elicited by neuropeptide FF, rat NPFF2; for EC50: recombinant rat NPFF2
Method: as §1

T1 sequence (Q9EP86 whole entry): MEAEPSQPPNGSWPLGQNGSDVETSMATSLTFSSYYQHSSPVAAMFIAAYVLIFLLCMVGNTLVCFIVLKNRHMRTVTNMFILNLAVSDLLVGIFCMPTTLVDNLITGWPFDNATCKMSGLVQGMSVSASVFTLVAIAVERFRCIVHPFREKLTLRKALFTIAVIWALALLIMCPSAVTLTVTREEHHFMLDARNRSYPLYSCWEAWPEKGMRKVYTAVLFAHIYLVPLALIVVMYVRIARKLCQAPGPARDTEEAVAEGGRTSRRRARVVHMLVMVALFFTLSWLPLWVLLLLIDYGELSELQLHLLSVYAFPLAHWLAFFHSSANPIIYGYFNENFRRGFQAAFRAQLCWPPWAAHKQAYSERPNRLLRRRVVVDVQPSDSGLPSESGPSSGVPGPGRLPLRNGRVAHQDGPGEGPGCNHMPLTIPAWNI

Row | Structure (SMILES) | rNPFF1 IA (intrinsic activity) [1] | EC50 [1] | Ki [2] | Ki [3] | rNPFF2 IA (intrinsic activity) [4] | EC50 [4]
1 | Cc1nc(NC(=N)N)nc2ccc(C3CCCCC3)cc12 [Compound 1029, N-(6-cyclohexyl-4-methyl-2-quinazolinyl)guanidine] | 28% NPFF | > 10000 nM | 1200 nM | 912 nM | 31% NPFF | 2050 nM
2 | Cc1nc(NC(=N)N)nc2ccc(Oc3ccccc3)cc12 [Compound 1032, N-(4-methyl-6-phenoxy-2-quinazolinyl)guanidine] | 31% NPFF | 374 nM | 1640 nM | 291 nM | 93% NPFF | 459 nM
3 | Cc1ccc(Oc2ccc3nc(NC(=N)N)nc(C)c3c2)cc1 [Compound 1033, N-[4-methyl-6-(4-methylphenoxy)-2-quinazolinyl]guanidine] | Inactive | > 10000 nM | 5860 nM | 481 nM | 51% NPFF | 3160 nM
4 | Cc1nc(NC(=N)N)nc2cc(C(C)O)ccc12 (stereo not drawn) [Compound 1035, N-[7-(1-hydroxyethyl)-4-methyl-2-quinazolinyl]guanidine] | Inactive | > 10000 nM | 1180 nM | 842 nM | 52% NPFF | 3160 nM
5 | CCC(C)c1ccc2nc(NC(=N)N)nc(C)c2c1 (stereo not drawn) [Compound 2002, N-(6-sec-butyl-4-methyl-2-quinazolinyl)guanidine] | 51% NPFF | 250 nM | 461 nM | 77 nM | 92% NPFF | 423 nM
6 | Cc1nc(NC(=N)N)nc2ccc(Cc3ccccc3)cc12 [Compound 2003, N-(6-benzyl-4-methyl-2-quinazolinyl)guanidine] | 56% NPFF | 171 nM | 195 nM | 371 nM | 89% NPFF | 49 nM

Results, then the compound that gave them:

Row | rNPFF1 IA (intrinsic activity) [1] | EC50 [1] | Ki [2] | Ki [3] | rNPFF2 IA (intrinsic activity) [4] | EC50 [4] | Structure (SMILES)
7 | Inactive | > 10000 nM | 817 nM | 386 nM | 79% NPFF | 758 nM | Cc1nc(NC(=N)N)nc2ccc(OCc3ccccc3)cc12 [Compound 1028, N-[6-(benzyloxy)-4-methyl-2-quinazolinyl]guanidine]
8 | Inactive | > 10000 nM | 4860 nM | 176 nM | 85% NPFF | 625 nM | Cc1nc(NC(=N)N)nc2ccc(OC(F)(F)F)cc12 [Compound 1030, N-[4-methyl-6-(trifluoromethoxy)-2-quinazolinyl]guanidine]
9 | Inactive | > 10000 nM | 3220 nM | 794 nM | 66% NPFF | 2190 nM | CCCCCOc1ccc2nc(NC(=N)N)nc(C)c2c1 [Compound 1031, N-[4-methyl-6-(pentyloxy)-2-quinazolinyl]guanidine]
10 | 63% NPFF | 610 nM | 1540 nM | 82 nM | 101% NPFF | 394 nM | Cc1nc(NC(=N)N)nc2ccc(CCCC(C)O)cc12 (stereo not drawn) [Compound 1034, N-(6-[1-(4-hydroxyl-pentyl)]-4-methyl-2-quinazolino)guanidine]
11 | Inactive | > 10000 nM | 2460 nM | 132 nM | 78% NPFF | 369 nM | Cc1nc(NC(=N)N)nc2cc(OC(F)(F)F)ccc12 [Compound 1036, N-[4-methyl-7-(trifluoromethoxy)-2-quinazolinyl]guanidine]
12 | Inactive | > 10000 nM | 824 nM | 143 nM | 71% NPFF | 3160 nM | Cc1nc(NC(=N)N)nc2cc3c(cc12)C=CCC3 [Compound 1037, N-(4-methyl-8,9-dihydrobenzo[g]quinazolin-2-yl)guanidine]
